According to patent US10064845B2, “Compositions and methods of treating muscular dystrophy with thromboxane-A2 receptor antagonists” (Cumberland Pharmaceuticals, Inc., priority 2016, dated 2018):

Tests used:
[1] = test system: pressure-overload model of pulmonary arterial hypertension; settings: cited from earlier work
[2] = test system: utrophin/dystrophin double knockout (DKO) mice; experiment: wire hang in DKO males; format: in vivo, mouse; settings: DKO males at 10 weeks; vs vehicle; FIG. 15
Source text: While the DSG KO (sgcd−/−) mice lack functional delta-sarcoglycan, the MD phenotype is milder than the human disease. Since utrophin, a dystrophin-related protein, is able to compensate for the loss of dystrophin, loss of utrophin and dystrophin (DKO) results in a more severe phenotype. […] The mice are difficult to generate and care for, and often die prematurely. Ifetroban treatment was started at 3 weeks upon weaning.
FIG. 1 are photos of a vehicle-treated compared with an ifetroban-treated DKO mouse. FIG. 1A is a photograph of a vehicle-treated DKO Mouse at 10 weeks. FIG. 1B is a photograph of an ifetroban-treated DKO mouse at 10 weeks. The ability to wrap the tail around the wire is dependent on muscle function. A reason the DKO mice are really hard to evaluate in the wire hang is that they have such severe scoliosis that their hind paws are very close to their front paws, so raising their hind paws to get a 4-limbed grip is not difficult despite their affliction.
FIG. 15 are graphs showing wire hang in DKO males at 10 weeks (ifetroban-treated (“ife”) versus vehicle).

dSG KO mice [3] = experiment: wire hang in dSG mice; format: in vivo, mouse
Source text: (§1) Example 4 utilized West/Carrier Muscular Dystrophy Animal Models (Delta-sarcoglycan knock-out mice (sgcd−/−)). Mice devoid of DSG develop cardiomyopathy and MD with signs of progressive disease such as necrosis, muscular regeneration, inflammation and fibrosis within the first 3 months of life. Mice that are homozygous for the targeted mutation are viable, fertile and normal in size. No gene product (protein) is immunodetected in skeletal muscle microsomal preparations. At 8 weeks of age there is an onset of sudden mortality, with a 50% survival rate at 28 weeks. Elevated creatine kinase serum levels are indicative of striated muscle degeneration. […] At 12 weeks of age, cardiac muscle tissue also begins to show degeneration, inflammatory infiltration and perivascular fibrosis. Myofiber membranes have permeability defects as assessed by Evans blue dye uptake into myofiber cytoplasm. […] A major function of dystrophin is to strengthen the sarcolemma by cross-linking the ECM with the cytoskeleton. […] They work to connect sarcolemma to cytoplasmic actin cytoskeleton. Dysfunction produces membrane instability, elevated [Ca2+]I and disrupted NO signaling. γ- and δ-SG form a core necessary for delivery/retention of other SG to the membrane.
Veh and ife-treated groups were NS tested against each other. N in parentheses. “ife”=ifetroban.
FIG. 8 depicts wire hang time for mice tested.

dSG KO mice [4] = experiment: survival of dSG KO mice; format: in vivo, mouse
Source text: Applicants explored the possibility that TPr activity may contribute to pathology in muscular dystrophy. In preliminary studies, the effects of blocking TPr activity in a δ-sarcoglycan knockout (dSG KO) mouse model of limb-girdle muscular dystrophy (LGMD). […] The inhibition of LV epicardial fibrosis may have particular applicability to DMD patients, where cardiac fibrosis typically begins in the sub-epicardium of the left ventricular (LV) free wall and progresses to include the remaining LV free wall and septum. […] Therefore, it is believed that TPr activity contributes to pathology in muscular dystrophy. Example 4 utilized West/Carrier Muscular Dystrophy Animal Models (Delta-sarcoglycan knock-out mice (sgcd−/−)). Mice devoid of DSG develop cardiomyopathy and MD with signs of progressive disease such as necrosis, muscular regeneration, inflammation and fibrosis within the first 3 months of life. Mice that are homozygous for the targeted mutation are viable, fertile and normal in size. No gene product (protein) is immunodetected in skeletal muscle microsomal preparations. At 8 weeks of age there is an onset of sudden mortality, with a 50% survival rate at 28 weeks. Elevated creatine kinase serum levels are indicative of striated muscle degeneration. […] Myofiber membranes have permeability defects as assessed by Evans blue dye uptake into myofiber cytoplasm. […]

[5] = test system: utrophin/dystrophin double knockout (DKO) mice, a model of severe DMD; experiment: survival of utrophin/dystrophin DKO mice; format: in vivo, mouse
Source text: (§2) Applicants explored the possibility that TPr activity may contribute to pathology in muscular dystrophy. In preliminary studies, the effects of blocking TPr activity in a δ-sarcoglycan knockout (dSG KO) mouse model of limb-girdle muscular dystrophy (LGMD). […] The inhibition of LV epicardial fibrosis may have particular applicability to DMD patients, where cardiac fibrosis typically begins in the sub-epicardium of the left ventricular (LV) free wall and progresses to include the remaining LV free wall and septum. […] Therefore, it is believed that TPr activity contributes to pathology in muscular dystrophy.
dSG KO mice, chosen for their cardiac phenotype, are a model of LGMD, but DMD which occurs in approximately 1:3500 male births (1), is far more common a disease than LGMD. The mdx mouse model of DMD poorly replicates the shortened life expectancy, cardiac fibrosis, and cardiomyopathy seen in DMD patients. The utrophin/dystrophin DKO model had significant mortality by 10 weeks, although treatment with the TPr antagonist ifetroban led to 100% survival to this predetermined timepoint. Although TPr antagonism may prevent spontaneous death in DMD, due to severe kyphosis and frailty we were not able to obtain much useful cardiac data with the DKO model of DMD.
(§3) While the DSG KO (sgcd−/−) mice lack functional delta-sarcoglycan, the MD phenotype is milder than the human disease. […]

dSG KO mice [6] = experiment: intestinal histology (H&E) in dSG KO mice; format: in vivo, mouse; settings: dSG KO mice vs vehicle-treated dSG KO mice; FIG. 13
Source text: as §1, with “membrane. […]” for “membrane.”

[7] = test system: δ-sarcoglycan knockout (dSG KO) mouse model of limb-girdle muscular dystrophy; experiment: cardiac function (Echo, cardiac output) in dSG KO mice; format: in vivo
Source text: as §2, §1, §3

[8] = test system: δ-sarcoglycan knockout (dSG KO) mouse model of limb-girdle muscular dystrophy; experiment: cardiac histology (Masson's trichrome) in dSG KO mice; format: in vivo
Source text: as §2, §1
FIGS. 9A (dSGKO-vehicle) and 9B (DsGKO-ifetroban) show cardiac histology in dSG KO males. Less fibrosis seen in ifetroban treated RV. Shown is Masson's trichrome at 4× for gross histology. […]

dSG KO mice [9] = experiment: spontaneous exercise (voluntary wheel running) in dSG KO mice; format: in vivo, mouse; settings: 6 month old dSG KO males; wheel access for 10 days after 4.5M of treatment; FIG. 5
Source text: as §1
FIG. 5 provides spontaneous exercise date for 6 month old males. […]

[10] = test system: δ-sarcoglycan knockout (dSG KO) mouse model of limb-girdle muscular dystrophy; experiment: plasma cardiac troponin I in dSG KO mice; format: in vivo; settings: given in drinking water
Source text: as §2
Example 4 utilized West/Carrier Muscular Dystrophy Animal Models (Delta-sarcoglycan knock-out mice (sgcd−/−)). Mice devoid of DSG develop cardiomyopathy and MD with signs of progressive disease such as necrosis, muscular regeneration, inflammation and fibrosis within the first 3 months of life. Mice that are homozygous for the targeted mutation are viable, fertile and normal in size. No gene product (protein) is immunodetected in skeletal muscle microsomal preparations. […] Myofiber membranes have permeability defects as assessed by Evans blue dye uptake into myofiber cytoplasm. […]
The term “cTNI” means plasma cardiac troponin I. The term “KO” means knockout. […] Plasma cardiac troponin I (cTNI) is highly specific and sensitive for myocardial tissue and can be measured rapidly. […]

[11] = dSG KO mice, given in drinking water, preliminary studies

## CC(=O)Oc1ccccc1C(=O)O [aspirin]
[1]
  cardiac function: no effect
  right ventricular fibrosis: no effect

## CCCCCNC(=O)c1coc([C@H]2[C@@H](Cc3ccccc3CCC(=O)O)[C@@H]3CC[C@H]2O3)n1 [ifetroban, [1S-(1α,2α,3α,4α)]-2-[[3-[4-[(Pentylamino)carbonyl]-2-oxazolyl]-7-oxabicyclo[2.2.1]hept-2-yl]methyl]-benzenepropanoic acid]
[2]
  average wire hang time: significantly longer average hang times
dSG KO mice [3]; dSG mice at 6 months, FIG. 6
  wire hang time: improved wire hang time
dSG KO mice [3]; male mice at 6 months, FIG. 8
  wire hang time (longest time): difficult to measure any difference
dSG KO mice [4]
  survival: significantly improved survival
[5]; DKO mice, treatment started at 3 weeks upon weaning
  10-week survival: 100%
[5]; all DKO mice, FIG. 17
  survival time: > 70 days
[1]
  cardiac function: improves cardiac function
  right ventricular fibrosis: dramatically decreases right ventricular fibrosis
dSG KO mice [6]
  fibrosis in intestinal tissue: less fibrosis
[7]; dSG KO males at 3 months, FIG. 3
  3 month Echo data: cardiac dysfunction: prevents cardiac dysfunction
[7]; [11]
  decline in cardiac function: prevents a decline in cardiac function
[7]; male dSG KO mice at 3 months, FIG. 4, compared to vehicle
  cardiac output: improved similar to WT levels
[8]; dSG KO males, Masson's trichrome 4× (FIG. 9) or 2× (FIG. 10)
  cardiac histology: fibrosis in RV: less fibrosis
[8]; dSG KO males, Masson's trichrome, 10×, FIG. 11
  cardiac histology: fibrosis in left and right ventricle: Less fibrosis
[8]; [11]
  formation of cardiac fibrosis: limits the formation of cardiac fibrosis
dSG KO mice [9]
  spontaneous exercise (voluntary wheel running): skeletal function deficit: seen to a less extent
[10]
  plasma cardiac troponin I levels: normalizing elevated plasma cardiac troponin I levels

## O=C(O)/C=C/c1ccc(Cn2ccnc2)cc1 [ozagrel]
[1]
  cardiac function: no effect
  right ventricular fibrosis: no effect
